Laboratory results as given in publication PMC5218480 (PLoS ONE, 2017).

Test system: MV-4-11 cells
Assay: Gene expression microarray analysis (Affymetrix PrimeView) and GSEA
Type: cell-based, human
Design: RFU PODN (11730768_x_at) / Fold change /veh PODN (11730768_x_at) / RFU LINC00158 (11744669_a_at) / Fold change /veh LINC00158 (11744669_a_at) / RFU DUSP10 (11751237_a_at) / Fold change /veh DUSP10 (11751237_a_at) / RFU ID3 (11757404_x_at) / Fold change /veh ID3 (11757404_x_at) / RFU PLEKHG5 (11737974_s_at) / Fold change /veh PLEKHG5 (11737974_s_at) / RFU LRRC4B (11730491_at) / Fold change /veh LRRC4B (11730491_at) / RFU GIMAP4 (11747438_a_at) / Fold change /veh GIMAP4 (11747438_a_at) / RFU KRT8 (11758183_x_at) / Fold change /veh KRT8 (11758183_x_at) / RFU CNN1 (11734310_a_at) / Fold change /veh CNN1 (11734310_a_at) / RFU VPS37D (11726825_at) / Fold change /veh VPS37D (11726825_at) / RFU C10orf10 (11716522_x_at) / Fold change /veh C10orf10 (11716522_x_at) / RFU KIR2DL2 /// KIR2DL4 /// KIR2DL5A /// KIR2DL5B /// KIR2DS1 /// KIR2DS2 /// KIR2DS3 /// KIR2DS4 /// KIR3DL3 /// KIR3DL3 /// KIR3DS1 (11738374_at) / Fold change /veh KIR2DL2 /// KIR2DL4 /// KIR2DL5A /// KIR2DL5B /// KIR2DS1 /// KIR2DS2 /// KIR2DS3 /// KIR2DS4 /// KIR3DL3 /// KIR3DL3 /// KIR3DS1 (11738374_at) / RFU C1QL1 (11718748_at) / Fold change /veh C1QL1 (11718748_at) / RFU TMPRSS4 (11747572_a_at) / Fold change /veh TMPRSS4 (11747572_a_at) / RFU HAMP (11756126_x_at) / Fold change /veh HAMP (11756126_x_at) / RFU RNFT2 (11725882_a_at) / Fold change /veh RNFT2 (11725882_a_at) / RFU NR4A2 (11747474_a_at) / Fold change /veh NR4A2 (11747474_a_at) / RFU ABCC12 (11746883_a_at) / Fold change /veh ABCC12 (11746883_a_at) / RFU TMEM136 (11760407_x_at) / Fold change /veh TMEM136 (11760407_x_at) / RFU CLDN22 /// WWC2 (11732394_at) / Fold change /veh CLDN22 /// WWC2 (11732394_at) / RFU HLA-DPB1 (11760878_x_at) / Fold change /veh HLA-DPB1 (11760878_x_at) / RFU SPINT1 (11716480_a_at) / Fold change /veh SPINT1 (11716480_a_at) / RFU GAP43 (11754022_s_at) / Fold change /veh GAP43 (11754022_s_at) / RFU A4GNT (11735810_at) / Fold change /veh A4GNT (11735810_at) / RFU PRB3 (11715151_x_at) / Fold change /veh PRB3 (11715151_x_at) / RFU TUBB4B (11761932_at) / Fold change /veh TUBB4B (11761932_at) / RFU CAPN14 (11732068_a_at) / Fold change /veh CAPN14 (11732068_a_at) / RFU TMCC2 (11721928_a_at) / Fold change /veh TMCC2 (11721928_a_at) / RFU IRGQ (11745062_a_at) / Fold change /veh IRGQ (11745062_a_at) / RFU FAM174B (11720279_a_at) / Fold change /veh FAM174B (11720279_a_at) / RFU TMPRSS4 (11748680_a_at) / Fold change /veh TMPRSS4 (11748680_a_at) / RFU FAM212B (11763350_a_at) / Fold change /veh FAM212B (11763350_a_at) / RFU PLEKHG5 (11743358_a_at) / Fold change /veh PLEKHG5 (11743358_a_at) / RFU ZSCAN30 (11745921_a_at) / Fold change /veh ZSCAN30 (11745921_a_at) / RFU CMKLR1 (11741424_a_at) / Fold change /veh CMKLR1 (11741424_a_at) / RFU LOC101060620 /// MAPK8IP1 (11723275_at) / Fold change /veh LOC101060620 /// MAPK8IP1 (11723275_at) / RFU SPTSSB (11747773_x_at) / Fold change /veh SPTSSB (11747773_x_at) / RFU PRSS12 (11739890_at) / Fold change /veh PRSS12 (11739890_at) / RFU BIN1 (11741810_x_at) / Fold change /veh BIN1 (11741810_x_at) / RFU WNT11 (11732464_a_at) / Fold change /veh WNT11 (11732464_a_at) / RFU C10orf10 (11716521_a_at) / Fold change /veh C10orf10 (11716521_a_at) / RFU C5orf56 (11738089_at) / Fold change /veh C5orf56 (11738089_at) / RFU CYB561 (11721691_x_at) / Fold change /veh CYB561 (11721691_x_at) / RFU ANKRD19P (11752326_a_at) / Fold change /veh ANKRD19P (11752326_a_at) / RFU OR2T12 /// OR2T33 /// OR2T8 (11738714_s_at) / Fold change /veh OR2T12 /// OR2T33 /// OR2T8 (11738714_s_at) / RFU VCAN (11748164_a_at) / Fold change /veh VCAN (11748164_a_at) / RFU JSRP1 (11732532_at) / Fold change /veh JSRP1 (11732532_at) / RFU KRTAP10-11 (11738290_x_at) / Fold change /veh KRTAP10-11 (11738290_x_at) / RFU MYO3A (11730013_a_at) / Fold change /veh MYO3A (11730013_a_at) / RFU EBF3 (11725865_a_at) / Fold change /veh EBF3 (11725865_a_at) / RFU CAMK2N1 (11719241_x_at) / Fold change /veh CAMK2N1 (11719241_x_at) / RFU C5orf56 (11738088_a_at) / Fold change /veh C5orf56 (11738088_a_at) / RFU OLFML3 (11715873_a_at) / Fold change /veh OLFML3 (11715873_a_at) / RFU LOC100653217 /// NTM (11731650_a_at) / Fold change /veh LOC100653217 /// NTM (11731650_a_at) / RFU MAPK11 (11762145_a_at) / Fold change /veh MAPK11 (11762145_a_at) / RFU FIZ1 (11724087_x_at) / Fold change /veh FIZ1 (11724087_x_at) / RFU OASL (11726364_x_at) / Fold change /veh OASL (11726364_x_at) / RFU SOX15 (11748057_x_at) / Fold change /veh SOX15 (11748057_x_at) / RFU CD79A (11719716_a_at) / Fold change /veh CD79A (11719716_a_at) / RFU HIST1H1D (11736915_at) / Fold change /veh HIST1H1D (11736915_at) / RFU CASKIN2 (11723855_a_at) / Fold change /veh CASKIN2 (11723855_a_at) / RFU LOC730098 (11760151_x_at) / Fold change /veh LOC730098 (11760151_x_at) / RFU OR4N2 (11742367_at) / Fold change /veh OR4N2 (11742367_at) / RFU PRRT2 (11749266_a_at) / Fold change /veh PRRT2 (11749266_a_at) / RFU SNX32 (11753110_a_at) / Fold change /veh SNX32 (11753110_a_at) / RFU CDHR5 (11726645_a_at) / Fold change /veh CDHR5 (11726645_a_at) / RFU RCAN1 (11760418_a_at) / Fold change /veh RCAN1 (11760418_a_at) / RFU FAM167A (11723789_a_at) / Fold change /veh FAM167A (11723789_a_at) / RFU FAM26E (11764081_at) / Fold change /veh FAM26E (11764081_at) / RFU ISYNA1 (11749810_s_at) / Fold change /veh ISYNA1 (11749810_s_at) / RFU ACY1 (11761880_at) / Fold change /veh ACY1 (11761880_at) / RFU 11764098_at / Fold change /veh 11764098_at / RFU SAMD14 (11745864_x_at) / Fold change /veh SAMD14 (11745864_x_at) / RFU NPB (11741838_a_at) / Fold change /veh NPB (11741838_a_at) / RFU TMPRSS6 (11731388_a_at) / Fold change /veh TMPRSS6 (11731388_a_at) / RFU KRTAP10-2 (11738614_at) / Fold change /veh KRTAP10-2 (11738614_at) / RFU ARHGAP8 /// PRR5-ARHGAP8 (11727945_x_at) / Fold change /veh ARHGAP8 /// PRR5-ARHGAP8 (11727945_x_at) / RFU KRTAP5-7 /// NADSYN1 (11734609_at) / Fold change /veh KRTAP5-7 /// NADSYN1 (11734609_at) / RFU RASL12 (11751679_a_at) / Fold change /veh RASL12 (11751679_a_at) / RFU CDKN2B (11736163_a_at) / Fold change /veh CDKN2B (11736163_a_at) / RFU PRF1 (11729649_at) / Fold change /veh PRF1 (11729649_at) / RFU, ZNF638 /// ZNF638-IT1 / Fold change vs veh, ZNF638 /// ZNF638-IT1 / RFU, PANK3 / Fold change vs veh, PANK3 / RFU, SH3YL1 / Fold change vs veh, SH3YL1 / RFU, ZEB2 / Fold change vs veh, ZEB2 / RFU, NRIP1 / Fold change vs veh, NRIP1 / RFU, PTTG1IP / Fold change vs veh, PTTG1IP / RFU, CAPN2 / Fold change vs veh, CAPN2 / RFU, MED14 / Fold change vs veh, MED14 / RFU, SNORA58 / Fold change vs veh, SNORA58 / RFU, C1orf63 / Fold change vs veh, C1orf63 / RFU, LRRFIP1 / Fold change vs veh, LRRFIP1 / RFU, NDUFAF7 / Fold change vs veh, NDUFAF7 / RFU, SLC12A2 / Fold change vs veh, SLC12A2 / RFU, IBTK / Fold change vs veh, IBTK / RFU, ESF1 / Fold change vs veh, ESF1 / Fold change vs veh, TMEM50B / RFU, TAOK1 / Fold change vs veh, TAOK1 / RFU, ACBD3 / Fold change vs veh, ACBD3 / RFU, TMA16 / Fold change vs veh, TMA16 / RFU, RWDD3 / Fold change vs veh, RWDD3 / RFU, BCAT1 / Fold change vs veh, BCAT1 / RFU, EDEM3 / Fold change vs veh, EDEM3 / RFU, TMEM33 / Fold change vs veh, TMEM33 / RFU, WDR75 / Fold change vs veh, WDR75 / RFU, AHCTF1 / Fold change vs veh, AHCTF1 / RFU, TFRC / Fold change vs veh, TFRC / RFU, ZDHHC17 / Fold change vs veh, ZDHHC17 / RFU, NOM1 / Fold change vs veh, NOM1 / RFU, ARL8B / Fold change vs veh, ARL8B / RFU, ZBTB11 / Fold change vs veh, ZBTB11 / RFU, TAMM41 / Fold change vs veh, TAMM41 / RFU, KIAA1704 /// LOC100996395 / Fold change vs veh, KIAA1704 /// LOC100996395 / RFU, ING1 / Fold change vs veh, ING1 / RFU, TRMT61B / Fold change vs veh, TRMT61B / RFU, FUBP3 / Fold change vs veh, FUBP3 / RFU, TP53 / Fold change vs veh, TP53 / RFU, TNKS2 / Fold change vs veh, TNKS2 / RFU, ZFP14 / Fold change vs veh, ZFP14 / RFU, ACTR2 / Fold change vs veh, ACTR2 / RFU, PPP3R1 / Fold change vs veh, PPP3R1 / RFU, PIK3R1 / Fold change vs veh, PIK3R1 / RFU, HNRNPA1 / Fold change vs veh, HNRNPA1 / RFU, RNF170 / Fold change vs veh, RNF170 / RFU, ZNF28 / Fold change vs veh, ZNF28 / RFU, RNGTT / Fold change vs veh, RNGTT / RFU, OGT / Fold change vs veh, OGT / RFU, BRD1 / Fold change vs veh, BRD1 / RFU, MARS / Fold change vs veh, MARS / RFU, ZNF655 / Fold change vs veh, ZNF655 / RFU, FAHD1 / Fold change vs veh, FAHD1 / RFU, BDP1 / Fold change vs veh, BDP1 / RFU, LRRCC1 / Fold change vs veh, LRRCC1 / RFU, ARID1A / Fold change vs veh, ARID1A / RFU, ZNF146 / Fold change vs veh, ZNF146 / RFU, ZNF330 / Fold change vs veh, ZNF330 / RFU, GPN3 / Fold change vs veh, GPN3 / RFU, C9orf123 / Fold change vs veh, C9orf123 / RFU, N4BP2L2 / Fold change vs veh, N4BP2L2 / RFU, ARFIP1 / Fold change vs veh, ARFIP1 / RFU, FAM179B / Fold change vs veh, FAM179B / RFU, BCL10 / Fold change vs veh, BCL10 / RFU, UHRF1BP1L / Fold change vs veh, UHRF1BP1L / RFU, BET1 / Fold change vs veh, BET1 / RFU, CNOT2 / Fold change vs veh, CNOT2 / RFU, ZNF268 / Fold change vs veh, ZNF268 / Fold change vs veh, ZNF507 / RFU, DGCR2 / Fold change vs veh, DGCR2 / RFU, WDSUB1 / Fold change vs veh, WDSUB1 / Fold change vs veh, HSP90B1 /// MIR3652 / RFU, ADSS / Fold change vs veh, ADSS / RFU, GK / Fold change vs veh, GK / RFU, ZNF148 / Fold change vs veh, ZNF148 / RFU, TAF9 / Fold change vs veh, TAF9 / RFU, SLC1A5 / Fold change vs veh, SLC1A5 / RFU, SLMO2 / Fold change vs veh, SLMO2 / RFU, ABCC4 / Fold change vs veh, ABCC4 / RFU, LOC101060439 /// RAP1B / Fold change vs veh, LOC101060439 /// RAP1B / RFU, RFX7 / Fold change vs veh, RFX7 / RFU, GTPBP10 / Fold change vs veh, GTPBP10 / RFU, CNEP1R1 / Fold change vs veh, CNEP1R1 / RFU, BIVM-ERCC5 /// ERCC5 / Fold change vs veh, BIVM-ERCC5 /// ERCC5 / RFU, ILF3 / Fold change vs veh, ILF3 / RFU 11762660_at / Fold change /veh 11762660_at / RFU VCAN (11757783_s_at) / Fold change /veh VCAN (11757783_s_at) / RFU DDX43 (11728927_at) / Fold change /veh DDX43 (11728927_at) / RFU KRT8 (11758188_x_at) / Fold change /veh KRT8 (11758188_x_at) / RFU NKD1 (11759106_at) / Fold change /veh NKD1 (11759106_at) / RFU SRD5A1 (11742802_a_at) / Fold change /veh SRD5A1 (11742802_a_at) / RFU TPSAB1 /// TPSB2 (11721975_s_at) / Fold change /veh TPSAB1 /// TPSB2 (11721975_s_at) / RFU GSTM3 (11746129_a_at) / Fold change /veh GSTM3 (11746129_a_at) / RFU IL23R (11737362_x_at) / Fold change /veh IL23R (11737362_x_at) / RFU TMEM51 (11727254_a_at) / Fold change /veh TMEM51 (11727254_a_at) / RFU PIWIL2 (11732686_x_at) / Fold change /veh PIWIL2 (11732686_x_at) / RFU ORM1 (11744905_x_at) / Fold change /veh ORM1 (11744905_x_at) / RFU CCDC152 (11743942_at) / Fold change /veh CCDC152 (11743942_at) / RFU ECM1 (11717891_a_at) / Fold change /veh ECM1 (11717891_a_at) / RFU IL23R (11748794_a_at) / Fold change /veh IL23R (11748794_a_at) / RFU TNFAIP8L3 (11732012_x_at) / Fold change /veh TNFAIP8L3 (11732012_x_at) / RFU MBOAT4 (11741988_at) / Fold change /veh MBOAT4 (11741988_at) / RFU 11764193_at / Fold change /veh 11764193_at / RFU TMEM53 (11763286_at) / Fold change /veh TMEM53 (11763286_at) / RFU MAGEB2 (11727129_at) / Fold change /veh MAGEB2 (11727129_at) / RFU TMEM200A (11744735_a_at) / Fold change /veh TMEM200A (11744735_a_at) / RFU CCDC152 (11751479_a_at) / Fold change /veh CCDC152 (11751479_a_at) / RFU FAM211A (11726209_a_at) / Fold change /veh FAM211A (11726209_a_at) / RFU RGS16 (11746705_a_at) / Fold change /veh RGS16 (11746705_a_at) / RFU VCAN (11755009_s_at) / Fold change /veh VCAN (11755009_s_at) / RFU RHOB (11743442_s_at) / Fold change /veh RHOB (11743442_s_at) / RFU RGS16 (11720943_a_at) / Fold change /veh RGS16 (11720943_a_at) / RFU RGS16 (11720944_at) / Fold change /veh RGS16 (11720944_at) / RFU, VPS4B / Fold change vs veh, VPS4B / RFU, CREB1 / Fold change vs veh, CREB1 / RFU, DNAJC13 / Fold change vs veh, DNAJC13 / RFU, GNAQ / Fold change vs veh, GNAQ / RFU, CDK5R1 / Fold change vs veh, CDK5R1 / RFU, ZRANB3 / Fold change vs veh, ZRANB3 / RFU, CUL4A / Fold change vs veh, CUL4A / RFU, CCNY / Fold change vs veh, CCNY / RFU, UFL1 / Fold change vs veh, UFL1 / RFU, COG3 / Fold change vs veh, COG3 / RFU, DIAPH2 / Fold change vs veh, DIAPH2 / RFU, SKA2 / Fold change vs veh, SKA2 / RFU, AFF3 / Fold change vs veh, AFF3 / RFU, LMF1 / Fold change vs veh, LMF1 / RFU, IPO11 / Fold change vs veh, IPO11 / RFU, DFFB / Fold change vs veh, DFFB / RFU, FOXP1 / Fold change vs veh, FOXP1 / RFU, CARD8 / Fold change vs veh, CARD8 / RFU, STRN3 / Fold change vs veh, STRN3 / RFU, ADK / Fold change vs veh, ADK / RFU, RASSF2 / Fold change vs veh, RASSF2 / RFU, WIPF1 / Fold change vs veh, WIPF1 / RFU, LARP1B / Fold change vs veh, LARP1B / RFU, RASA1 / Fold change vs veh, RASA1 / RFU, RB1 / Fold change vs veh, RB1 / RFU, PPFIA1 / Fold change vs veh, PPFIA1 / RFU, MAT2A / Fold change vs veh, MAT2A / RFU, CCT5 / Fold change vs veh, CCT5 / RFU, WDR92 / Fold change vs veh, WDR92 / RFU, CUX1 / Fold change vs veh, CUX1 / RFU, TTC7A / Fold change vs veh, TTC7A / RFU, TMEM135 / Fold change vs veh, TMEM135 / RFU, DEPTOR / Fold change vs veh, DEPTOR / RFU, CPM / Fold change vs veh, CPM / RFU, DNAJB6 / Fold change vs veh, DNAJB6 / RFU, CACNA2D3 / Fold change vs veh, CACNA2D3 / RFU, DTX4 / Fold change vs veh, DTX4 / RFU, TFCP2 / Fold change vs veh, TFCP2 / RFU, GMCL1 /// GMCL1P1 / Fold change vs veh, GMCL1 /// GMCL1P1 / RFU, AEBP2 / Fold change vs veh, AEBP2 / RFU, SNHG1 /// SNORD22 /// SNORD25 /// SNORD26 /// SNORD27 /// SNORD28 /// SNORD29 /// SNORD31 / Fold change vs veh, SNHG1 /// SNORD22 /// SNORD25 /// SNORD26 /// SNORD27 /// SNORD28 /// SNORD29 /// SNORD31 / Fold change (Aza/veh), C12orf56 (ProbeSet 11735607_a_at) / Fold change (ACY-1035/veh), C12orf56 (ProbeSet 11735607_a_at) / Fold change (Aza/veh), FGFR1OP (ProbeSet 11751329_s_at) / Fold change (ACY-1035/veh), FGFR1OP (ProbeSet 11751329_s_at) / Fold change (Aza/veh), VPS36 (ProbeSet 11739960_a_at) / Fold change (ACY-1035/veh), VPS36 (ProbeSet 11739960_a_at) / RFU SYPL1 (11715823_x_at) / Fold change /veh SYPL1 (11715823_x_at) / RFU IGFBP7 (11715501_s_at) / Fold change /veh IGFBP7 (11715501_s_at) / RFU REEP3 (11722064_at) / Fold change /veh REEP3 (11722064_at) / RFU IGLL1 (11728026_x_at) / Fold change /veh IGLL1 (11728026_x_at): dose or concentration left out as unconfirmed
Details: ProbeSet 11717914_a_at; LIST B

Nc1ncn([C@@H]2O[C@H](CO)[C@@H](O)[C@H]2O)c(=O)n1 [azacitidine]
RFU, BIVM-ERCC5 /// ERCC5: 162.65 RFU
